{"source": "patent US5591891A", "about": "“N-[Mercaptoacyl (amino acid or peptide ) ] compounds and S-lipophiIic aliphatic carbonyl derivatives thereof as antihypertensives” (Institut National de la Sante et de la Recherche Medicale …, priority 1994, dated 1997)", "origin": "cited, not measured here", "molecular_target": "T1, NEP (Rattus norvegicus, UniProt P07861)", "T1 construct": "thereby aids in reducing blood pressure in the rat; host or cells: rat, in vivo", "T1 sequence (P07861 1-750)": "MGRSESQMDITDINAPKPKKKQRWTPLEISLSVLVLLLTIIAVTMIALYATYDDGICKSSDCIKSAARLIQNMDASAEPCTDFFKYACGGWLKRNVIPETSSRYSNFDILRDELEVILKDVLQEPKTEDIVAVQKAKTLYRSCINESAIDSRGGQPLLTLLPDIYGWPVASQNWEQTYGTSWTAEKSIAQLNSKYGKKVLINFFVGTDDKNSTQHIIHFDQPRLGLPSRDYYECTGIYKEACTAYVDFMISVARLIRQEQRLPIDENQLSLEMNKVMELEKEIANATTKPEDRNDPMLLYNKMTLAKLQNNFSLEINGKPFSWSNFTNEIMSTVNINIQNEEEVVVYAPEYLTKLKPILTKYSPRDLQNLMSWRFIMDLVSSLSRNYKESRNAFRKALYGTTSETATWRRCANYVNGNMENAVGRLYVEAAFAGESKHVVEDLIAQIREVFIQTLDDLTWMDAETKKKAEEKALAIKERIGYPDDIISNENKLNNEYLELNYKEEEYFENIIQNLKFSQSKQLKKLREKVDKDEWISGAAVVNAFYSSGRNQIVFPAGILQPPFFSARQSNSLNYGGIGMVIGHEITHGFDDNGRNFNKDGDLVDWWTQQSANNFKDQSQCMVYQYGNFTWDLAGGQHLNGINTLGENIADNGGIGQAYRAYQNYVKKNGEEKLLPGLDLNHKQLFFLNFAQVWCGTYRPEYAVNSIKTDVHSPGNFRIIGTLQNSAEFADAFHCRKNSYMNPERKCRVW", "settings": "aids in reducing blood pressure; cited from earlier work", "data": [{"smiles": "O=C(O)CNC(=O)C(CS)Cc1ccccc1", "note": "(racemic) [Thiorphan, N-(2-mercapto-methyl-3-phenyl-1-oxopropyl)glycine]", "values": [{"measurement": "half-life of circulating auricular natriuretic peptide", "value": "capable of augmenting the half-life of circulating auricular natriuretic peptide"}]}]}
